Measurements: ChEMBL document CHEMBL1201862, “PubChem BioAssay data set” (2004)
Activity calls are given as the source filed them.

How the values were obtained:
[1] = target: T1, Mannose-6-phosphate isomerase (Homo sapiens, UniProt P34949); test: human PMI inhibitors, high substrate, primary screen, biochemical, fluorescence intensity, high mannose 6-phosphate (AID 1220)
T1 sequence (P34949 whole entry): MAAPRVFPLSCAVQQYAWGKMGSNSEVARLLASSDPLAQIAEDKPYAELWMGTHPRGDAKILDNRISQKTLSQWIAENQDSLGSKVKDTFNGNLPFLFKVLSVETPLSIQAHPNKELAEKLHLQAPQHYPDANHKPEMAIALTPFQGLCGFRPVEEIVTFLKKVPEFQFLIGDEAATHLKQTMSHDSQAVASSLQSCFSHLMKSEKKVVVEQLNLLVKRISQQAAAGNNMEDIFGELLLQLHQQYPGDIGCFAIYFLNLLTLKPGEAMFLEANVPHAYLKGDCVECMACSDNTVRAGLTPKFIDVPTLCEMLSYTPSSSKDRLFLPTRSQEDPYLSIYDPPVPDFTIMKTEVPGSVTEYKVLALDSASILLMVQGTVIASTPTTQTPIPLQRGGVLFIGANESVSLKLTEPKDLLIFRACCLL

[2] = target: T2, Histone-lysine N-methyltransferase NSD2 (Homo sapiens, UniProt O96028); assay type: biochemical
T2 sequence (O96028 whole entry): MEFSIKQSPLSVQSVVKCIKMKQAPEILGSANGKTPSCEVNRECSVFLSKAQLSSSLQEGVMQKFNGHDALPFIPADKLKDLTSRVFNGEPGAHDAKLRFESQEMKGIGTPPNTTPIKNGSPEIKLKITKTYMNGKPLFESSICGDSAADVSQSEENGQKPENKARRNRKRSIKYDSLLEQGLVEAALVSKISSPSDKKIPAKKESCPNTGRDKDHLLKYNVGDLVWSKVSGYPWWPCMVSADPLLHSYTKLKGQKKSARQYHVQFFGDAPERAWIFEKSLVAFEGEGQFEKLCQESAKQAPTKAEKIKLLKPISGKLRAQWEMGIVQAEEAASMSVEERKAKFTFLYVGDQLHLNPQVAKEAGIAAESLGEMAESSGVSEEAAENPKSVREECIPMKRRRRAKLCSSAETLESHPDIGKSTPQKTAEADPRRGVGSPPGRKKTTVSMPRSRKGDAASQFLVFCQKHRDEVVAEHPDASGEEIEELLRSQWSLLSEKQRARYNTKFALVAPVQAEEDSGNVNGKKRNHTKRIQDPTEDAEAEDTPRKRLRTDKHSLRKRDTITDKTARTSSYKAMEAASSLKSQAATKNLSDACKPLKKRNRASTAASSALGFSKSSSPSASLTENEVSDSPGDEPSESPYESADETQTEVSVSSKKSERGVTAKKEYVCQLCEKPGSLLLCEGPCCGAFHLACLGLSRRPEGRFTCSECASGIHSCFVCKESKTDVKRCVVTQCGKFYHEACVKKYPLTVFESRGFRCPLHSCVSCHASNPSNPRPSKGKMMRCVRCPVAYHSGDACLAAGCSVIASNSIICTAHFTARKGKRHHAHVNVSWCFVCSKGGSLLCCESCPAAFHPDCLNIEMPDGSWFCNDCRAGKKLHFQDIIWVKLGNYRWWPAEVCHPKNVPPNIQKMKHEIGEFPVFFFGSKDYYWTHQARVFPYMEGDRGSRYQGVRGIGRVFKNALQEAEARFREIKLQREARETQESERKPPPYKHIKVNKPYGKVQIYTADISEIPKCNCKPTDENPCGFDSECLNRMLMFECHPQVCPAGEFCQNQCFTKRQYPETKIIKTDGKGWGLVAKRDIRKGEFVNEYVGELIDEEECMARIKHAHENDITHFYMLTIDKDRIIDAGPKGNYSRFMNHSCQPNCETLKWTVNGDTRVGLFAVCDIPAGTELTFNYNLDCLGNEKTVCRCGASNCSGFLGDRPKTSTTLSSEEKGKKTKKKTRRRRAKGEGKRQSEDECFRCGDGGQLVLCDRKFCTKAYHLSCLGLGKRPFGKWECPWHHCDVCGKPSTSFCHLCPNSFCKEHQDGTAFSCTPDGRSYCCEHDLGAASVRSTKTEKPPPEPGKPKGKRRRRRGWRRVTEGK

Estrogen receptor [3] = target: T3, Estrogen receptor (Homo sapiens, UniProt P03372);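 note: potency for inhibiting coactivator peptide recruitment to the receptor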
T3 sequence (P03372 whole entry): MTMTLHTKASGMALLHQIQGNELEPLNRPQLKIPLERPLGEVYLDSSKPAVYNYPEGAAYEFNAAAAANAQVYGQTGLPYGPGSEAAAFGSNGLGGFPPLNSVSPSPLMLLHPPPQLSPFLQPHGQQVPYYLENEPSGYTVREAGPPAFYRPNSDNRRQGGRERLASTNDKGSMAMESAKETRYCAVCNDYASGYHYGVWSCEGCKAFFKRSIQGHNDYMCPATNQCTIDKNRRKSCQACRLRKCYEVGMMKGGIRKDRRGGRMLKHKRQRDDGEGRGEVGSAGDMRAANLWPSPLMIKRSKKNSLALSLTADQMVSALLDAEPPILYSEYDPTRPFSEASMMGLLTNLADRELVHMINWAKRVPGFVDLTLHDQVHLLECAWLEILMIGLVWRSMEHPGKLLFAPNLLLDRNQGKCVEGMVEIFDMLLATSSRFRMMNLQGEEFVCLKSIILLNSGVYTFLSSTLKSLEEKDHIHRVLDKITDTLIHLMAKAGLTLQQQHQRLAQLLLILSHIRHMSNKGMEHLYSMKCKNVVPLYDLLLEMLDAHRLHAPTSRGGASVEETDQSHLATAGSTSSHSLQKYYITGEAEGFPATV

Estrogen receptor beta [4] = target: T4, Estrogen receptor beta (Homo sapiens, UniProt Q92731);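 note: recombinant ER-beta bound to coactivator SRC1 peptide in presence of estradiol agonist; inhibitors block coactivator peptide binding and lower the FRET signal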
Estrogen receptor beta [5] = target: T4, Estrogen receptor beta; test: ERβ–SRC-3 coactivator interaction inhibitors, confirmation, orthogonal assay, biochemical, ELISA, streptavidin-HRP readout (AID 1060)
[6] = target: E3 ubiquitin-protein ligase Mdm2 (Homo sapiens, UniProt Q00987); test: enhancers of MDM2-luciferase reporter signal, concentration-effect titration, project on inhibitors of MDM2 ubiquitin ligase, cellular assay, luminescent readout, 384-well plate format (AID 1394); assay type: functional;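 note: MDM2 E3 inhibitors raise luminescence so EC50 is for signal enhancement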
[7] = target: T5, RNA-binding protein pos-1 (Caenorhabditis elegans, UniProt G5EF15); test: inhibitors of POS-1/mex-3 RNA binding, dose response, biochemical, fluorescence polarization (AID 1964);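 note: purified POS-1 fused to maltose binding protein made in E. coli; potency of compounds blocking POS-1 binding to fluorescent RNA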
T5 sequence (G5EF15 whole entry): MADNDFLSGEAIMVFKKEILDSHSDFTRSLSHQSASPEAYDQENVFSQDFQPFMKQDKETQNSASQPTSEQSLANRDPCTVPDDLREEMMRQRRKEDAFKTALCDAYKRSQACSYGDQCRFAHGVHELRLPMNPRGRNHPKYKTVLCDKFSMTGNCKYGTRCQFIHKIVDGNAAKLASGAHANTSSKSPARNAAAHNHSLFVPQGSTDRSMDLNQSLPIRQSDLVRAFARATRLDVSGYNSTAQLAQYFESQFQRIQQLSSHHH

[8] = target: T6, Zinc finger protein mex-5 (Caenorhabditis elegans, UniProt Q9XUB2); test: MEX-5/TCR-2 RNA interaction inhibitors, dose response, biochemical, C. elegans, fluorescence polarization (AID 1960)
T6 sequence (Q9XUB2 whole entry): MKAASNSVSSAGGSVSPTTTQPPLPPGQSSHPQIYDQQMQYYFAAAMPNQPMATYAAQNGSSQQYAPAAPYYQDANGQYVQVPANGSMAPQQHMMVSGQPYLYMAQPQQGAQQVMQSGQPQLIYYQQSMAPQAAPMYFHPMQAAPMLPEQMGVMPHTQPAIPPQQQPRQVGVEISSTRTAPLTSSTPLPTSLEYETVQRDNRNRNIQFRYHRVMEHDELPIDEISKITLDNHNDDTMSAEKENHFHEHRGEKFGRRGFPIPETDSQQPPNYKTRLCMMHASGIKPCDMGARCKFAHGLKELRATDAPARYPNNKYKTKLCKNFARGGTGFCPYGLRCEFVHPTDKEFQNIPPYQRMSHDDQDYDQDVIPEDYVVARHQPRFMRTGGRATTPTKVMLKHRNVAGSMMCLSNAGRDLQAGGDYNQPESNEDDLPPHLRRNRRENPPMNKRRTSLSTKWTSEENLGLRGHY

Large T antigen = Large T antigen (Simian virus 40, UniProt P03070); assay type: functional, Betapolyomavirus macacae;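 note: Confirmatory-stage PubChem screen for compounds that inhibit SV40 T antigen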
[9] = M. tuberculosis growth inhibition, HTS (AID 449762); assay type: functional
Estrogen receptor [10] = target: T3, Estrogen receptor; test: potentiators of ERα–SRC-1 coactivator binding, dose response, biochemical, TR-FRET, ERα LBD (AID 737)
NADPH oxidase 1 = target: T7, NADPH oxidase 1 (Homo sapiens, UniProt Q9Y5S8); assay type: functional, cell-based;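 note: Cell-based assay with luminescence read-out, IC50 derived from inhibitor dose-response curves; intracellular ROS from endogenous NOX1 in intact HT29 colon cancer cells; potency of inhibitors that lower the ROS luminescence signal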
T7 sequence (Q9Y5S8 whole entry): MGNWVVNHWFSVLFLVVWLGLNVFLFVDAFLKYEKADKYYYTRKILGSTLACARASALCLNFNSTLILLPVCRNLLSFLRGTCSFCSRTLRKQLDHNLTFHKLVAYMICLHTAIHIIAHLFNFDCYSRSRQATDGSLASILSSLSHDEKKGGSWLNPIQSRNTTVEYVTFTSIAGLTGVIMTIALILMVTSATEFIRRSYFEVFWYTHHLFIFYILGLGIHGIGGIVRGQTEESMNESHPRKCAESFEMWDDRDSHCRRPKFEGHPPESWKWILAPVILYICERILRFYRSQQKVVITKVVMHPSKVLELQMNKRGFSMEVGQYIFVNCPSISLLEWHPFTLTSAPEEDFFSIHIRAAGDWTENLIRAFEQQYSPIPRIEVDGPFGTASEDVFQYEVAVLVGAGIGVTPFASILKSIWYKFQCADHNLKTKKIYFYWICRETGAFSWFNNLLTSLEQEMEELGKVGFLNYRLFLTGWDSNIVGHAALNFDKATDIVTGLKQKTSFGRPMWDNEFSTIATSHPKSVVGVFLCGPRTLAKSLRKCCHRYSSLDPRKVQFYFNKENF

[11] = enhancers of respiration in Yfh1-depleted yeast, dose response, Friedreich's ataxia, plus single-dose screen (AID 1465); assay type: functional;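 note: yeast depleted of Yfh1p frataxin homolog grown on glycerol needing respiration; WST-1 tetrazolium dye reduction as measure of cellular dehydrogenase metabolic activity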
[12] = Luminescent dose response cell-based high throughput screening assay for inhibitors of the Janus kinase 2 mutant JAK2V617F. [Related pubchem assays: 1446 (Primary screen.), 1521 (Confirmation assay.), 1486 (Counter screen.)]; assay type: functional
Kallikrein-7 = Kallikrein-7 (Homo sapiens, UniProt P49862); test: Fluorescence Intensity-based biochemical primary high throughput dose response assay to identify activators of kallikrein-7 (K7) zymogen.
Mucolipin-3 = target: T8, Mucolipin-3 (Homo sapiens, UniProt Q8TDD5); test: Dose response cell-based high-throughput screening assay for agonists of the transient receptor potential channel ML3 (TRPML3). [Related pubchem assays: 1526, 1424, 1448 ]; assay type: functional
T8 sequence (Q8TDD5 whole entry): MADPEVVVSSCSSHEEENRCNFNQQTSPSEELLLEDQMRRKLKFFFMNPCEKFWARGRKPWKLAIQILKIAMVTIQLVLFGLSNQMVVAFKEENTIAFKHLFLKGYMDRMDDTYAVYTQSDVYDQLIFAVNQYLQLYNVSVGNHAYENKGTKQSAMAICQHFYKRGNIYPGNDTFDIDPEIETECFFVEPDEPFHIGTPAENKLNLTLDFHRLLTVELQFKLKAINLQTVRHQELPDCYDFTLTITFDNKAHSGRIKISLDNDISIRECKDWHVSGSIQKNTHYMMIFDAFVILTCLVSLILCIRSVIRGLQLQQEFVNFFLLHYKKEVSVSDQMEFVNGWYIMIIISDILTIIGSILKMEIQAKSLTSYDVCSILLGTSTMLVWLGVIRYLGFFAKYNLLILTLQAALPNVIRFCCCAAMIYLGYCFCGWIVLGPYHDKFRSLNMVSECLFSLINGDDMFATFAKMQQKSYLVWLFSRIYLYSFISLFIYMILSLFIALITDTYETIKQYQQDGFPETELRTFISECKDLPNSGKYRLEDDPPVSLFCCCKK

Ion channel NompC = Ion channel NompC (Danio rerio, UniProt Q7T1G6); test: Fluorescence counterscreen assay for TRPML3 agonists: dose response cell-based high-throughput screening assay to identify agonists of the transient receptor potential channel N1 (TRPN1). [Related pubchem assays: 1526, 1424, 1448 ]; assay type: functional
[13] = HEp-2 cell cytotoxicity, dose response, cytotoxicity control for RSV inhibitor project, HTS (AID 2410); assay type: functional; conditions: human respiratory syncytial virus

T4 sequence (Q92731 whole entry): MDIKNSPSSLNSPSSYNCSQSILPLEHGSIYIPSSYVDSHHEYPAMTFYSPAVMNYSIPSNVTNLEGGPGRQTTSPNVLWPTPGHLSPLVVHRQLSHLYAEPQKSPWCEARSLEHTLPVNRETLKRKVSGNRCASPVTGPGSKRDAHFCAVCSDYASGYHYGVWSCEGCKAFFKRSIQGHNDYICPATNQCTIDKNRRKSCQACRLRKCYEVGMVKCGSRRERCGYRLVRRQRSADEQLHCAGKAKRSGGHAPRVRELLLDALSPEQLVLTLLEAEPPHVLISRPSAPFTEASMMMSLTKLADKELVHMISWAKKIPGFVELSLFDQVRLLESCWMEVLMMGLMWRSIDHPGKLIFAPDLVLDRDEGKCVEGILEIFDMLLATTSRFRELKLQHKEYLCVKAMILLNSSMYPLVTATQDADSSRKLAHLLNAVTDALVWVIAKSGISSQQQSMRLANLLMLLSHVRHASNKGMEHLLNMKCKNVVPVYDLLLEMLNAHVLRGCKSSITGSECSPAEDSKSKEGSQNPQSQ
Sequence of Ion channel NompC (Q7T1G6 whole entry): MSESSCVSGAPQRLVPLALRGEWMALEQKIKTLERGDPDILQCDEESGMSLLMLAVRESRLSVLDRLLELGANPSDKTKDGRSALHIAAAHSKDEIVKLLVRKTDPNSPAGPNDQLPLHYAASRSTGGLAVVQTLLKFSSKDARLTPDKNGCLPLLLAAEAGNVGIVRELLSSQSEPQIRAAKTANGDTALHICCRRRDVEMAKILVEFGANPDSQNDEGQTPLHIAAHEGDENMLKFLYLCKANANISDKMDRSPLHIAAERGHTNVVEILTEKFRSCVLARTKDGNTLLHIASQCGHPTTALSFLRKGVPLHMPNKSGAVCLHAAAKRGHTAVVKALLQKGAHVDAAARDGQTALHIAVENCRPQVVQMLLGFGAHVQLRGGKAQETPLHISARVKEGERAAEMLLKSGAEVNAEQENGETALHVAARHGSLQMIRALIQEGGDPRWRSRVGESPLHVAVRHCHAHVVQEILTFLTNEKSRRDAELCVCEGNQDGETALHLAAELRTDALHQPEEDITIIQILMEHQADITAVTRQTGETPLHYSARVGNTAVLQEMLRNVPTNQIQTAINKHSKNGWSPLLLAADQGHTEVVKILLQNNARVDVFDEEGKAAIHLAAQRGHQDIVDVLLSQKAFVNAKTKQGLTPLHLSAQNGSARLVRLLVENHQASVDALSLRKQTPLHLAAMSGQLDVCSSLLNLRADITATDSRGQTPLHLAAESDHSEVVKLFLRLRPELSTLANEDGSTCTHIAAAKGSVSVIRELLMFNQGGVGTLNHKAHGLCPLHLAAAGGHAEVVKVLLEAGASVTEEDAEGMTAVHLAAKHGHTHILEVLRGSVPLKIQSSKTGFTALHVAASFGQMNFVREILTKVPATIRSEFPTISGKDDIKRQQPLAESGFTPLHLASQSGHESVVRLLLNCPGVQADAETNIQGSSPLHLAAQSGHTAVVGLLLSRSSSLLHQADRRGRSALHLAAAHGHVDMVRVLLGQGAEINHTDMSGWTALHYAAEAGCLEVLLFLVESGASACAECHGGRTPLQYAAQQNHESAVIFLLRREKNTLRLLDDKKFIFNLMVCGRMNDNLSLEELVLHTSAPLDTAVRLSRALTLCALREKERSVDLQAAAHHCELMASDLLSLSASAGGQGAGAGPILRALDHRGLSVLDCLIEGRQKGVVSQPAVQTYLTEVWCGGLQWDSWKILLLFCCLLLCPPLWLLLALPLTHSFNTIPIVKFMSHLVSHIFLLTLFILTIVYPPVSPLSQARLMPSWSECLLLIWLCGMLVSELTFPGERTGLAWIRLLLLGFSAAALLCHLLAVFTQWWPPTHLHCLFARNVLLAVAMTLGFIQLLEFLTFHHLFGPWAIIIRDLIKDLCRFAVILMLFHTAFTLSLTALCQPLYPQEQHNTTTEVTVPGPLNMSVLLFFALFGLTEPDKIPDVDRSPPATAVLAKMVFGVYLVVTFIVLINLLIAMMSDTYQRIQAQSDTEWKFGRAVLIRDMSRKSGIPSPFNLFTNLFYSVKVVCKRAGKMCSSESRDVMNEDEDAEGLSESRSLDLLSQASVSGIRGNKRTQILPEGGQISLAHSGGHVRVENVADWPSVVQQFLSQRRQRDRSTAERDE
Sequence of E3 ubiquitin-protein ligase Mdm2 (Q00987 whole entry, the tested form may be a part): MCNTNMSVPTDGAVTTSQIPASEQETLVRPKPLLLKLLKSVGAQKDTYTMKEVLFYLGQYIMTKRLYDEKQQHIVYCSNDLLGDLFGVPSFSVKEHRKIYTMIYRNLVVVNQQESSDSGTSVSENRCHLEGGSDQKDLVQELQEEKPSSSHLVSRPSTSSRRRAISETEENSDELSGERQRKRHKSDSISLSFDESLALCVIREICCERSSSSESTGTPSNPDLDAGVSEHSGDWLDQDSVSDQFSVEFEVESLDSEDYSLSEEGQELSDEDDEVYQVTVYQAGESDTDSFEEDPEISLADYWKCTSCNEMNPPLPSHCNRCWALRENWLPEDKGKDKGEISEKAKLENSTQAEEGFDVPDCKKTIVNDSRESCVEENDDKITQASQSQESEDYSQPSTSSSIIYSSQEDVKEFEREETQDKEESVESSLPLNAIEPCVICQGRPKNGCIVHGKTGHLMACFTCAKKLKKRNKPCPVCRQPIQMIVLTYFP
Sequence of Kallikrein-7 (P49862 whole entry): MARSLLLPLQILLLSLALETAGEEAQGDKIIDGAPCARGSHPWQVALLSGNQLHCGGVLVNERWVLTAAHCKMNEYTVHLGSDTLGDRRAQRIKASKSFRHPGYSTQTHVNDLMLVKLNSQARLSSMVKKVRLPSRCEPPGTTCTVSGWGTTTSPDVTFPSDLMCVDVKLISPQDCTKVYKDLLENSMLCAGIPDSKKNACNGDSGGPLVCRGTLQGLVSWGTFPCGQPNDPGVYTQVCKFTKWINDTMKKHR
Sequence of Large T antigen (P03070 whole entry): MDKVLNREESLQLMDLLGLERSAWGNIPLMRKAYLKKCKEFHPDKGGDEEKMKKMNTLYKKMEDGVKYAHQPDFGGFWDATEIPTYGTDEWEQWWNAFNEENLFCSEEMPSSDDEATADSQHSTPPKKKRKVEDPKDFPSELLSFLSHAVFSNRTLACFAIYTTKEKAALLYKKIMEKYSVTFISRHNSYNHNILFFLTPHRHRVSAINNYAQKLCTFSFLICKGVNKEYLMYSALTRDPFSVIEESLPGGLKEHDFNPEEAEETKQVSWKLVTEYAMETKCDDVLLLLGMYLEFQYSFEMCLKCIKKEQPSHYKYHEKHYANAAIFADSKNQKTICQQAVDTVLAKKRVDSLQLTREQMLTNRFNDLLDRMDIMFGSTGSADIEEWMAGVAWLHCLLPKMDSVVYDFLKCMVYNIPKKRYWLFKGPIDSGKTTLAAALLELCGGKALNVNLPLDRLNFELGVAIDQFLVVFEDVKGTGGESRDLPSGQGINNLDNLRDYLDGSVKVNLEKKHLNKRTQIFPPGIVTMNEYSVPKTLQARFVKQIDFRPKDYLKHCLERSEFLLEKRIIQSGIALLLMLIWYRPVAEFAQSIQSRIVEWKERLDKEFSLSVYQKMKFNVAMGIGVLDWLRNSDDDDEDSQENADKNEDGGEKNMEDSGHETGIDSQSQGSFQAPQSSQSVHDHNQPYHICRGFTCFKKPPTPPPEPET

In the case of `COc1ccccc1N=C(S)Nc1cccc2cnccc12`, the IC50 [1] is reported as > 50 µM (not active) and the AC50 [2] is reported as 10.1 µM (active).

For `O=C(NCc1ccco1)c1cc2c(s1)CSC2`, the IC50 (Estrogen receptor [3]) was 9.41 µM (active), the IC50 (Estrogen receptor beta [4]) was 7.85 µM (active) and the IC50 (Estrogen receptor beta [5]) was 0.0368 µM (not active).

For `COc1ccc(S(=O)(=O)NN(C)c2ncc(C(F)(F)F)cc2Cl)cc1`, the EC50 [6] was 0.38 µM (not active).

For `COc1ccccc1N1C(=O)NC(=O)/C(=C/c2ccc([N+](=O)[O-])s2)C1=O`, the EC50 [7] was 44.1 µM (active), the EC50 [8] was 23 µM (active) and the IC50 (Large T antigen) was > 100 µM (active). The IC50 [9] was > 100 µM (active).

For `COc1cc(NC(=O)c2cc3c(=O)n(C)c4ccccc4c3n2C)cc(OC)c1OC`, the EC50 (Estrogen receptor [10]) was 12.9 µM (not active).

With `CC(=O)Nc1ccccc1OC(=O)c1sc2ccccc2c1Cl` the IC50 (NADPH oxidase 1) was > 17 µM (not active).

In the case of `C1CCC(c2nn3c(-c4[nH]nc5c4CCC5)nnc3s2)CC1`, the IC50 (Estrogen receptor [3]) is reported as > 50 µM (not active), the IC50 (Estrogen receptor beta [4]) is reported as 10.2 µM (active) and the IC50 (Estrogen receptor beta [5]) is reported as > 50 µM (not active).

For `O=C(Nc1ccc(Cl)cc1)Nc1ccc(Oc2ccccc2)cc1`, the IC50 (NADPH oxidase 1) was > 17 µM (not active).

In the case of `CC1(OC(=O)CCc2ccccc2)C(=O)C=C2C=C(c3ccc(C#N)cc3)N(Cc3ccco3)C=C2C1=O` (centres undefined), the EC50 [11] is reported as > 100 µM (active).

With `O=C(Nc1cccc2c1[nH]c1ccccc12)C(F)(F)F` the IC50 [12] was 2.48 µM (active) and the EC50 (Kallikrein-7) was 31.8 µM (inactive).

In the case of `COC(=O)C1(C(C[N+](=O)[O-])c2ccco2)C(=O)NCC1c1ccccc1` (centres undefined), the EC50 (Mucolipin-3) is reported as 7.77 µM (active) and the EC50 (Ion channel NompC) is reported as > 29.9 µM (not active).

For `Cc1ccc(S(=O)(=O)N2CCc3ccccc3C2CN2C(=O)c3ccccc3C2=O)cc1` (centres undefined), the CC50 [13] was 45.1 µM (active), the EC50 (Mucolipin-3) was > 29.9 µM (not active) and the EC50 (Ion channel NompC) was > 29.9 µM (not active).
